{"source": "patent US20040156851A1", "about": "“HMGB1 combination therapies” (Critical Therapeutics, Inc., priority 2002, published 2004)", "molecules": {"B1": {"name": "A box: Human HMGB1 mutant containing only the A box, SEQ ID NO:21 (A box SEQ ID NO:22) (protein, listed as Homo sapiens)", "chain": "MGKGDPKKPTGKMSSYAFFVQTCREEHKKKHPDASVNFSEFSKKCSERWKTMSAKEKGKFEDMAKADKARYEREMKTYIPPKGET"}}, "key": {"RAW 264.7 cells": {"test_system": "RAW 264.7 cells", "test": "TNF release from RAW 264.7 cells stimulated with HMGB1, mutants or B box peptides (L929 cytotoxicity bioassay)", "format": "cell-based, murine", "conditions": "for TNF release by synthetic B box peptide fragments: synthetic peptide 10 μg/ml, 10 hours (FIG. 3)", "description": "Murine macrophage-like RAW 264.7 cells (American Type Culture Collection, Rockville, Md.) were cultured in RPMI 1640 medium (Life Technologies, Grand Island, N.Y.) supplemented with 10% fetal bovine serum (Gemini, Catabasas, Calif.), penicillin and streptomycin (Life Technologies) and were used at 90% confluence in serum-free Opti-MEM I medium (Life Technologies, Grand Island, N.Y.). […] Polymyxin B was not used in experiments of synthetic peptide studies.\nTNF release was measured by a standard murine fibroblast L929 (ATCC, American Type Culture Collection, Rockville, Md.) cytotoxicity bioassay (Bianchi et al., Journal of Experimental Medicine 183:927-936, 1996) with the minimum detectable concentration of 30 pg/ml. Recombinant mouse TNF was obtained from R&D system Inc., (Minneapolis, Minn.). Murine fibroblast L929 cells (ATCC) were cultured in DMEM (Life Technologies, Grand Island, N.Y.) supplemented with 10% fetal bovine serum (Gemini, Catabasas, Calif.), penicillin (50 units/ml) and streptomycin (50 μg/ml) (Life Technologies) in a humidified incubator with 5% CO2.\nThe effect of the mutants on TNF release from Murine macrophage-like RAW 264.7 cells (ATCC) was carried out as follows. RAW 264.7 cells were cultured in RPMI 1640 medium (Life Technologies, Grand Island, N.Y.) supplemented with 10% fetal bovine serum (Gemini, Catabasas, Calif.), penicillin and streptomycin (Life Technologies). Polymyxin (Sigma, St. Louis, Mo.) was added at 100 units/ml to suppress the activity of any contaminating LPS. Cells were incubated with 1 μg/ml of full length (wild-type) HMGB1 and each HMGB1 mutant protein in Opti-MEM I medium for 8 hours. Conditioned supernatants (containing TNF which had been released from the cells) were collected and TNF released from the cells was measured by a standard murine fibroblast L929 (ATCC) cytotoxicity bioassay (Bianchi et al., supra) with the minimum detectable concentration of 30 pg/ml. Recombinant mouse TNF was obtained from R & D Systems Inc., (Minneapolis, Minn.) and used as control in these experiments. Data in FIG. 1 are all presented as mean±SEM unless otherwise indicated. (N=6−10).\nTo further examine the effect of HMGB1 B box on cytokine production, varying amounts of HMGB1 B box were evaluated for the effects on TNF, IL-1B, and IL-6 production in murine macrophage-like RAW 264.7 cells. Conditioned media were harvested and measured for TNF, IL-1β and IL-6 levels. TNF levels were measured as described herein, and IL-1β and IL-6 levels were measured using the mouse IL-1β and IL-6 enzyme-linked immunosorbent assay (ELISA) kits (R&D System Inc., Minneapolis, Minn.) and N>5 for all experiments.\nThe kinetics of B box-induced TNF release were also examined. TNF release and TNF mRNA expression were measured in RAW 264.7 cells induced by B box polypeptide or GST tag polypeptide only (used as a control (vector)) (10 μg/ml) for 0 to 48 hours. Supernatants were analyzed for TNF protein levels by an L929 cytotoxicity assay (N=3-5) as described herein. For mRNA measurement, cells were plated in 100 mm plates and treated in Opti-MEM I medium containing B box polypeptide or the vector alone for 0, 4, 8, or 24 hours, as indicated in FIG. 2D. The vector only sample was assayed at the 4 hour time point. Cells were scraped off the plate and total RNA was isolated using the RNAzol B method in accordance with the manufacturer's instructions (Tel-Test “B”, Inc., Friendswood, Tex.). TNF (287 bp) was measured by RNase protection assay (Ambion, Austin, Tex.). Equal loading and the integrity of RNA was verified by ethidium bromide staining of the RNA sample on an agarose-formaldehyde gel. […] TNF mRNA expression was maximal at 4 hours and decreased at 8 and 24 hours. […] A similar study was carried out measuring TNF protein released from RAW 264.7 cells 0, 4, 8, 24, 32 or 48 hours after administration of B box or vector only (GST tag), using the L929 cytotoxicity assay described herein. […]"}, "[1]": {"molecular_target": "Recombinant full length human HMGB1 (wild type HMGB1) (human)", "test": "cell-based or functional assay"}, "[2]": {"molecular_target": "RAGE on RAW 264.7 cells (mouse (murine RAW 264.7 cells)) (UniProt Q62151)", "sequence (Q62151 23-402)": "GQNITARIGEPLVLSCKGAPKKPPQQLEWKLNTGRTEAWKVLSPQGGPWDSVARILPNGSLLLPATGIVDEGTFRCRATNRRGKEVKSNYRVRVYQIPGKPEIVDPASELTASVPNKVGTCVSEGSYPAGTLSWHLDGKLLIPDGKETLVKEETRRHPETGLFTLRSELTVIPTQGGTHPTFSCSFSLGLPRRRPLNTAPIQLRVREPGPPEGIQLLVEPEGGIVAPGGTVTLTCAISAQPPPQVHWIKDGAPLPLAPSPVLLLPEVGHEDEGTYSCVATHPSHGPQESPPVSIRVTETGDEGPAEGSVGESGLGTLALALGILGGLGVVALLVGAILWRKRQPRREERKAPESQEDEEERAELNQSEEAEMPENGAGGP", "test": "cell-based or functional assay"}, "[3]": {"test_system": "Balb/c mice subjected to CLP", "test": "Cecal ligation and puncture (CLP) sepsis, survival of Balb/c mice", "format": "in vivo", "description": "Cecal ligation and puncture (CLP) was performed as described previously (Fink and Heard, J. Surg. Res. 49:186-196, 1990; Wichmann et al., Crit. Care Med. 26:2078-2086, 1998; and Remick et al., Shock 4:89-95, 1995). Briefly, Balb/c mice were anesthetized with 75 mg/kg ketamine (Fort Dodge, Fort Dodge, Iowa) and 20 mg/kg of xylazine (Bohringer Ingelheim, St. Joseph, Mo.) intramuscularly. A midline incision was performed, and the cecum was isolated. A 6-0 prolene suture ligature was placed at a level 5.0 mm from the cecal tip away from the ileocecal valve.\nThe ligated cecal stump was then punctured once with a 22-gauge needle, without direct extrusion of stool. The cecum was then placed back into its normal intra-abdominal position. […] Mortality was recorded for up to 1 week after the procedure; survivors were followed for 2 weeks to ensure no late mortalities had occurred.\nTo determine whether the HMGB1 A box can inhibit the lethality of HMGB1 during sepsis, mice were subjected to cecal perforation and treated by administration of A box beginning 24 hours after the onset of sepsis. […] Survival was monitored twice daily for up to 2 weeks to ensure no late death occurred. […]\nPassive immunization of critically ill septic mice with anti-HMGB1 antibodies was also assessed. […] Survival was monitored for 2 weeks. […]"}, "[4]": {"test_system": "HMGB1 induced TNF release", "test": "A box inhibition of HMGB1 induced TNF release from RAW 264.7 cells", "format": "cell-based, murine", "conditions": "co-addition with HMGB1, 16 hours, TNF ELISA (FIG. 4B)", "description": "Weak agonists are by definition antagonists. […] This study was carried out as follows. Sub-confluent RAW 264.7 cells in 24-well dishes were treated with HMGB1 (1 μg/ml) and 0, 5, 10, or 25 μg/ml of A box for 16 hours in Opti-MEM I medium in the presence of polymyxin B (100 units/ml). The TNF-stimulating activity (assayed using the L929 cytotoxicity assay described herein) in the sample receiving no A box was expressed as 100%, and the inhibition by A box was expressed as percent of HMGB1 alone. […] Data in FIG. 4A are presented as mean±SD (n=2-3 independent experiments).\nAntagonism of full length HMGB1 activity by HMGB1 A box or GST tag (vector control) was also determined by measuring TNF release from RAW 264.7 macrophage cultures stimulated by co-addition of A box with full length HMGB1. RAW 264.7 macrophage cells (ATCC) were seeded into 24-well tissue culture plates and used at 90% confluence. The cells were treated with HMGB1, and/or A boxes as indicated for 16 hours in Optimum I medium (Life Technologies, Grand Island, N.Y.) in the presence of polymyxin B (100 units/ml, Sigma, St. Louis, Mo.) and supernatants were collected for TNF measurement (mouse ELISA kit from R&D System Inc, Minneapolis, Minn.). TNF-inducing activity was expressed as a percentage of the activity achieved with HMGB1 alone. […]"}}, "data": [{"molecule": "16-25: Synthetic peptide fragment containing amino acids 16-25 of the HMGB1 B box (SEQ ID NO:20) (LFCSEYRPKI; listed as Homo sapiens)", "values": [{"measurement": "TNF release by synthetic B box peptide fragments", "setting": "RAW 264.7 cells", "value": "did not induce TNF release"}]}, {"molecule": "30-49: Synthetic peptide fragment containing amino acids 30-49 of the HMGB1 B box (SEQ ID NO:20) (PGLSIGDVAKKLGEMWNNTA; listed as Homo sapiens)", "values": [{"measurement": "TNF release by synthetic B box peptide fragments", "setting": "RAW 264.7 cells", "value": "did not induce TNF release"}]}, {"molecule": "45-64: Synthetic peptide fragment containing amino acids 45-64 of the HMGB1 B box (SEQ ID NO:20) (WNNTAADDKQPYEKKAAKLK; listed as Homo sapiens)", "values": [{"measurement": "TNF release by synthetic B box peptide fragments", "setting": "RAW 264.7 cells", "value": "did not induce TNF release"}]}, {"molecule": "60-74: Synthetic peptide fragment containing amino acids 60-74 of the HMGB1 B box (SEQ ID NO:20) (AAKLKEKYEKDIAAY; listed as Homo sapiens)", "values": [{"measurement": "TNF release by synthetic B box peptide fragments", "setting": "RAW 264.7 cells", "value": "did not induce TNF release"}]}, {"molecule": "HMGB1 Amino terminus+A box mutant (human HMGB1 A box polypeptide) (from UniProt A9RA84 1-85)", "values": [{"measurement": "inhibition of HMGB1 (1 µg/ml) induced TNF release from RAW 264.7 cells, L929 cytotoxicity assay", "setting": "[1]", "value": 7.5, "unit": "µg/mL"}]}, {"molecule": "Recombinant full length human HMGB1 (wild type HMGB1) (from UniProt A9RA84 1-215) (ligand)", "values": [{"measurement": "decrease of HMGB1 (1 µg/ml) induced TNF release from RAW 264.7 cells by anti-RAGE antibody (25 µg/ml)", "setting": "[2]", "value": 40, "unit": "%"}]}, {"molecule": "fkdpnapkrlpsafflfcse (FKDPNAPKRLPSAFFLFCSE; listed as Homo sapiens) [1-20-mer]", "values": [{"measurement": "TNF stimulating potency compared with full length B box and HMGB1", "setting": "RAW 264.7 cells; peptide 10 μg/ml vs B box 1 μg/ml, 10 hours", "value": "less potent than either the full length synthetic B box (1-74-mer), or full length HMGB1"}, {"measurement": "TNF release by synthetic B box peptide fragments", "setting": "RAW 264.7 cells", "value": "TNF-stimulating activity was retained"}]}, {"molecule": "B1", "values": [{"measurement": "outcome of animals", "setting": "[3]; 60 μg/mouse", "value": "most died"}, {"measurement": "clinical behaviour of animals", "setting": "[3]; 600 μg/mouse, vs vector controls or 60 μg", "value": "significantly more alert, active, and to resume feeding behavior"}, {"measurement": "effect on TNF stimulating activity of full length HMGB1", "setting": "[4]", "value": "significantly attenuated the TNF stimulating activity of full length HMGB1"}]}]}
